Reference: US9051331B2, “Substituted dihydro benzocycloalkyloxymethyl oxazolopyrimidinones, preparation and use thereof” (Sanofi, priority 2009, dated 2015)

Experiments:
[1] = rat; cited from earlier work
[2] = mice; cited from earlier work
[3] = target: rat or human mGluR2 receptor (UniProt Q14416); assay: calcium ion (Ca2+) mobilization assay for allosteric modulators of mGluR2; format: cell-based; settings: potency at approx. EC10 for glutamate; rat or human receptor not given; read-out: mGluR2 Potentiation (EC50)
From the text: A calcium ion (Ca^2) mobilization assay was used to identify and determine the activity for allosteric modulators of the rat or human mGluR2 receptor. Two formats were used: (1) examine the ability of glutamate to affect the potency of the modulator, by looking at a concentration-response curve of compound at different submaximal glutamate concentrations, and (2) look at the ability of the modulator to affect the potency of glutamate by looking at a concentration-response curve of glutamate at a maximal modulator concentration.
To monitor functional receptor response using calcium mobilization, a cell line stably expressing the rat or human mGluR2 receptor (normally coupled to its intracellular effector molecules through an inhibitory G-protein, Gαi) and Gα16, in a tetracycline-inducible vector was created. Gα16 can promiscuously couple Gs and Gi-coupled receptors to the inositol phospholipid signaling pathway by activating phospholipase Cβ resulting in a Ca^2+ signal (normally Gαq-mediated), that can be monitored with fluorescence plate readers such as FLIPR (Molecular Devices, Fluorescence Imaging Plate Reader), FDSS6000 (Hamamatsu, Fluorescence Drug Screening System), or FlexStation (Molecular Devices). The Ca^2+ mobilization assay was based on the detection of intracellular calcium changes using a selective, calcium-chelating dye: Fluo-3, Fluo-4, or Calcium-3. A large fluorescence intensity increase was observed upon calcium association with the dye. The dye was delivered either with the acetoxy-methyl ester, and washed off, or using a no-wash kit (Molecular Devices). Fluorescence signals stimulated by glutamate were recorded and used to generate the following pharmacological parameters: (1) the potency (EC50) of the compound(s) of interest at approx. EC 10 for glutamate at the rat and human mGluR2 receptors respectively, and (2) a fold-shift of the glutamate EC50 by maximal concentration of compound(s) of interest.

[4] = compared to placebo; cited from earlier work
[5] = DBA/2 mice; cited from earlier work
[6] = pentylenetetrazole- and picrotoxin-induced; cited from earlier work
[7] = pretreatment, healthy human subjects; cited from earlier work
[8] = some animal models; cited from earlier work

Structure (SMILES) | EC50 [3] [nM] | other results
N[C@@]1(C(=O)O)CO[C@H]2[C@H](C(=O)O)[C@H]21 [LY379268] | – | effect on REM sleep and fast EEG [1]: suppresses rapid eye movement (REM) sleep and fast EEG
Cc1c(OCc2cccc(-c3ccc(C(=O)O)cc3)c2)cc2c(c1C)C(=O)C(C1CCCC1)C2 (stereo not drawn) [biphenyl-indanone A] | – | antipsychotic- and anxiolytic-like effects [2]: antipsychotic- and anxiolytic-like effects in mice
O=c1ccn2c(n1)O[C@H](COc1ccc3c(c1)CCC3)C2 [Comparative Ex. 1, (S)-2-(Indan-5-yloxymethyl)-2,3-dihydro-oxazolo[3,2-a]pyrimidin-7-one] | 445 | –
CC1(C)CCc2cc(OC[C@H]3Cn4ccc(=O)nc4O3)ccc21 [Comparative Ex. 3, (R)-2-(1,1-Dimethyl-indan-5-yloxymethyl)-2,3-dihydro-oxazolo[3,2-a]pyrimidin-7-one] | 9100 | –
CCc1cn2c(nc1=O)O[C@H](COc1ccc3c(c1)CCCC3(C)C)C2 [Example 8, (S)-2-(5,5-Dimethyl-5,6,7,8-tetrahydro-naphthalen-2-yloxymethyl)-6-ethyl-2,3-dihydro-oxazolo[3,2-a]pyrimidin-7-one] | 17 | –
O=c1ccn2c(n1)O[C@H](COc1ccc3c(c1)CCCC3)C2 [Comparative Ex. 2, (S)-2-(5,6,7,8-Tetrahydro-naphthalen-2-yloxymethyl)-2,3-dihydro-oxazolo[3,2-a]pyrimidin-7-one] | 224 | –
CSCC[C@H](N)C(=O)N[C@@]1(C(=O)O)CS(=O)(=O)[C@H]2[C@H](C(=O)O)[C@H]21 [LY2140023] | – | positive and negative symptoms of schizophrenia [4]: statistically significant improvements
CC1(C)CCC(C)(C)c2cc(OC[C@@H]3Cn4ccc(=O)nc4O3)ccc21 [Example 4, (S)-2-(5,5,8,8-Tetramethyl-5,6,7,8-tetrahydro-naphthalen-2-yloxymethyl)-2,3-dihydro-oxazolo[3,2-a]pyrimidin-7-one] | 15 | –
CCC(F)(F)c1cc(=O)nc2n1C[C@@H](COc1ccc3c(c1)CCC3(C)C)O2 [Example 9, (S)-5-(1,1-Difluoro-propyl)-2-(1,1-dimethyl-indan-5-yloxymethyl)-2,3-dihydro-oxazolo[3,2-a]pyrimidin-7-one] | 64 | –
N[C@H](C(=O)O)c1ccc(C(=O)O)c(O)c1 [(S)-4-carboxy-3-hydroxyphenylglycine] | – | protection against audiogenic seizures [5]: protects against audiogenic seizures
CCC(F)(F)c1cc(=O)nc2n1C[C@@H](COc1ccc3c(c1)CCCC3(C)C)O2 [Example 10, (S)-5-(1,1-Difluoro-propyl)-2-(5,5-dimethyl-5,6,7,8-tetrahydro-naphthalen-2-yloxymethyl)-2,3-dihydro-oxazolo[3,2-a]pyrimidin-7-one] | 15 | –
CCc1cn2c(nc1=O)O[C@H](COc1ccc3c(c1)CCC3(C)C)C2 [Example 7, (S)-2-(1,1-Dimethyl-indan-5-yloxymethyl)-6-ethyl-2,3-dihydro-oxazolo[3,2-a]pyrimidin-7-one] | 20 | –
CC1(C)CCCc2cc(OC[C@@H]3Cn4ccc(=O)nc4O3)ccc21 [Example 2, (S)-2-(5,5-Dimethyl-5,6,7,8-tetrahydro-naphthalen-2-yloxymethyl)-2,3-dihydro-oxazolo[3,2-a]pyrimidin-7-one] | 19 | –
CC1(C)CCc2cc(OC[C@@H]3Cn4ccc(=O)nc4O3)ccc21 [Example 1, (S)-2-(1,1-Dimethyl-indan-5-yloxymethyl)-2,3-dihydro-oxazolo[3,2-a]pyrimidin-7-one] | 29 | –
N[C@@]1(C(=O)O)CC[C@H]2[C@H](C(=O)O)[C@H]21 [LY354740] | – | effect on chemically induced seizures [6]: attenuates pentylenetetrazole- and picrotoxin-induced seizures; effect on ketamine-disrupted working memory [7]: attenuation of the disruptive effects
N[C@]1(C(=O)O)[C@H]2[C@@H](C[C@H]1OCc1ccc(Cl)c(Cl)c1)[C@]2(F)C(=O)O [MGS0039] | – | antidepressant-like effects [8]: dose-dependent antidepressant-like effects
CC1(C)CCCCc2cc(OC[C@@H]3Cn4ccc(=O)nc4O3)ccc21 [Example 3, (S)-2-(5,5-Dimethyl-6,7,8,9-tetrahydro-5H-benzocyclohepten-2-yloxymethyl)-2,3-dihydro-oxazolo[3,2-a]pyrimidin-7-one] | 11 | –
